Key:
SARS-CoV-2 = experiment: Inhibition of SARS-CoV-2 replication in Vero E6 cells (viral NP immunostaining, percent infection); settings: for IC50: read-out: IC50 of inhibition of the replication of SARS-CoV-2, MOI 0.025, compound added 2 h before infection, 48 h incubation, NP immunostaining
Vero E6 cells = settings: uninfected VeroE6 cells, MTT assay, same compound dilutions as viral replication assay

Row | Structure (SMILES) | IC50 (SARS-CoV-2) [nM] | effect on viral replication (SARS-CoV-2; SARS-CoV-2, negative control, data not shown) | effect on the viability of Vero E6 cells (Vero E6 cells) | fold more effective than Remdesivir (SARS-CoV-2 replication IC50) (SARS-CoV-2; ratio of IC50 values versus Remdesivir)
1 | CCN(CCO)CCCC(C)Nc1ccnc2cc(Cl)ccc12 (stereo not drawn) [Hydroxy-Chloroquine] | 733 |  |  | 
2 | CN1CCN(c2ccc(Nc3ncc4cc(C#N)c(=O)n(C5CCCC5)c4n3)cc2)CC1 [ON123300] |  | no effect |  | 
3 | CCC(CC)COC(=O)[C@H](C)N[P@](=O)(OC[C@H]1O[C@@](C#N)(c2ccc3c(N)ncnn23)[C@H](O)[C@@H]1O)Oc1ccccc1 [Remdesivir] | 826 |  |  | 
4 | COc1cc(OC)c(/C=C/S(=O)(=O)Cc2ccc(OC)c(NCC(=O)O)c2)c(OC)c1 [Rigosertib] | 16 |  | little or no effect | approximately 50 fold

Reference: patent US12616671B2, “Use of rigosertib to treat RNA virus infections” (Icahn School of Medicine at Mount Sinai, priority 2020, dated 2026)
